One experiment addresses T1, YliI (Escherichia coli, UniProt P75804).
T1 construct: recombinant, purified cofactor-free; details only in supplement
T1 sequence (P75804 21-371): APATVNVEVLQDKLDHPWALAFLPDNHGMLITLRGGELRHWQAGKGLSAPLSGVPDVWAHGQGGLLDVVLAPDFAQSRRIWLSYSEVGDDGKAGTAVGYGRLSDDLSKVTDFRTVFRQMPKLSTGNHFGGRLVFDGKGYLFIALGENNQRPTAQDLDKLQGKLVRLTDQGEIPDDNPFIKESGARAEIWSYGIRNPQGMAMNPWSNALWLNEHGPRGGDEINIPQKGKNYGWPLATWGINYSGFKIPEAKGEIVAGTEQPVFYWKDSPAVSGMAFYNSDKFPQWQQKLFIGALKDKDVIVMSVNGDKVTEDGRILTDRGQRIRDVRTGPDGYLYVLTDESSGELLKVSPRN
Description: coupled colorimetric assay. As to conditions: 100 nM enzyme reconstituted with PQQ, 1.25 M glucose. It is filed as biochemical.

The target in a further experiment is T2, PedH (Pseudomonas putida, UniProt Q88JH0).
T2 sequence (Q88JH0 28-595): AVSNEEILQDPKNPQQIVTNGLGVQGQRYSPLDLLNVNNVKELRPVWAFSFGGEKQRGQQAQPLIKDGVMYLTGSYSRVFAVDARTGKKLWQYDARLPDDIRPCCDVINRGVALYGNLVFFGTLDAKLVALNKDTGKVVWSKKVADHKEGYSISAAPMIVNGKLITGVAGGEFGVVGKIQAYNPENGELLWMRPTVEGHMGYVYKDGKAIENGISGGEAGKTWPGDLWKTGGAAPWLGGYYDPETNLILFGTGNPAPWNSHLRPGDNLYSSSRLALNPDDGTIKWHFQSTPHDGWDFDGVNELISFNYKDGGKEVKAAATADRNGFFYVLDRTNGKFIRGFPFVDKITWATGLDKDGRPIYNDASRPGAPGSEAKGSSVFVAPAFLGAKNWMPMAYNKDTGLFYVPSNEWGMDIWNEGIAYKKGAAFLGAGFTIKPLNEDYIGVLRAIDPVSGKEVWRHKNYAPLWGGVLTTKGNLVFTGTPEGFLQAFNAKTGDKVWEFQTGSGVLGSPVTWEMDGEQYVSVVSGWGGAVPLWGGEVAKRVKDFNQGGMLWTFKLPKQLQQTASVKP
The note with it: 100 nM enzyme reconstituted with PQQ, 50 mM ethanol.

The target of another experiment is T3, HtpG (Escherichia coli, UniProt P0A6Z3).
T3 construct: recombinant from E. coli BL21, purified without PQQ; 73529 Da peak is a +135 Da adduct
T3 sequence (P0A6Z3 whole entry): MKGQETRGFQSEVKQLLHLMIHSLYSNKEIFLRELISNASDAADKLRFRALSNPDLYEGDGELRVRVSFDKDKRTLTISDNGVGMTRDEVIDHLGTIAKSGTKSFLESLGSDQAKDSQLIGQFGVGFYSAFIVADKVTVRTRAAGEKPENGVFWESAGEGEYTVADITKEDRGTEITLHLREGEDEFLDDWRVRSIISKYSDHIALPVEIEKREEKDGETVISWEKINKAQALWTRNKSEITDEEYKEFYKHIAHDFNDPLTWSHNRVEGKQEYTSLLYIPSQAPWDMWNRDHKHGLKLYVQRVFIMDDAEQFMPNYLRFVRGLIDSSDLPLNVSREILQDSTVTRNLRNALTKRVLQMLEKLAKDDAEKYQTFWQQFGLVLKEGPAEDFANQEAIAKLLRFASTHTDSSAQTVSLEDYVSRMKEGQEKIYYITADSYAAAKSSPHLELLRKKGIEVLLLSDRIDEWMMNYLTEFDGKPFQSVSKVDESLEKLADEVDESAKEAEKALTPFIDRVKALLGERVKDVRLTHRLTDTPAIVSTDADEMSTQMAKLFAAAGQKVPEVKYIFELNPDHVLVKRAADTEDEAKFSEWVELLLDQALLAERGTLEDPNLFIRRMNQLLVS
In words: UV/vis spectral shift; intact protein LC-MS. It is filed as binding. As to conditions: covalent; 100 uM protein, 300 uM PQQ, 4 °C overnight.

The target of the next experiment is T4, PpiD (Pseudomonas putida, UniProt Q88KI6).
T4 construct: gene PP_2304; recombinant from E. coli BL21, purified without PQQ
T4 sequence (Q88KI6 36-623): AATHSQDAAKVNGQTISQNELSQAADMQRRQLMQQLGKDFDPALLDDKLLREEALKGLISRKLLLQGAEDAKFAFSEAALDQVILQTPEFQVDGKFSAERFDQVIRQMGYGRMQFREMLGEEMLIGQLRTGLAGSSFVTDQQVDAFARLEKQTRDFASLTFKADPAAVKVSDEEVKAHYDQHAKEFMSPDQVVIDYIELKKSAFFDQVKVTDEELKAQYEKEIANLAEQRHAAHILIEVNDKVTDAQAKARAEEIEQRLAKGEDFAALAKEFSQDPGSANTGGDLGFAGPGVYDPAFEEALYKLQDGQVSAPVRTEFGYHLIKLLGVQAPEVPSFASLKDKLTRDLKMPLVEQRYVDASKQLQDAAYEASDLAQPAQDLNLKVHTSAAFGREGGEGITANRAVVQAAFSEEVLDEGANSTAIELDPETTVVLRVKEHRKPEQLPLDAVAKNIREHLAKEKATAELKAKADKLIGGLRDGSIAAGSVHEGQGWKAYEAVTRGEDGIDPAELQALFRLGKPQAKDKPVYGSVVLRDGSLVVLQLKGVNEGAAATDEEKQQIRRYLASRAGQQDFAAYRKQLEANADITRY
Description: UV/vis spectral shift; intact protein LC-MS. The class given is binding. The note with it: covalent; 100 uM protein, 300 uM PQQ, 4 °C overnight.

Experiment [1] has as its target T5, MBP (maltose-binding protein) (Escherichia coli, UniProt P0AEX9).
T5 construct: gene malE; recombinant from E. coli BL21, purified without PQQ
In words: UV/vis spectral shift; intact protein LC-MS. The note with it: covalent; 100 uM protein, 300 uM PQQ, 4 °C overnight.

In a further experiment the target is T6, Tig (trigger factor) (Escherichia coli, UniProt P0A850).
T6 construct: recombinant from E. coli BL21, purified without PQQ
T6 sequence (P0A850 1-432): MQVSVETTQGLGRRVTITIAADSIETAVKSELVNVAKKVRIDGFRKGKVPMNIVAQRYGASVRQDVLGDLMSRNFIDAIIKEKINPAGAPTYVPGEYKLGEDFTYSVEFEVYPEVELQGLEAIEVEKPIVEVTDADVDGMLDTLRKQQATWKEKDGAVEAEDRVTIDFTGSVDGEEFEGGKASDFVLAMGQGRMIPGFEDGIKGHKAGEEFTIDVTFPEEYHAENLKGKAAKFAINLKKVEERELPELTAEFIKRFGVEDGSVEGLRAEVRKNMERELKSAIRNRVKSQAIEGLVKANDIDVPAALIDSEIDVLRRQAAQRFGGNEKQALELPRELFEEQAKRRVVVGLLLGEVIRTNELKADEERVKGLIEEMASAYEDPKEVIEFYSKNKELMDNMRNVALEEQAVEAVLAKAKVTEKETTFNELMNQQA
Description: UV/vis spectral shift; intact protein LC-MS. The class given is binding. As to conditions: covalent; 100 uM protein, 300 uM PQQ, 4 °C overnight.

A further experiment addresses T7, SurA (Escherichia coli, UniProt P0ABZ6).
T7 construct: recombinant from E. coli BL21, purified without PQQ
T7 sequence (P0ABZ6 21-428): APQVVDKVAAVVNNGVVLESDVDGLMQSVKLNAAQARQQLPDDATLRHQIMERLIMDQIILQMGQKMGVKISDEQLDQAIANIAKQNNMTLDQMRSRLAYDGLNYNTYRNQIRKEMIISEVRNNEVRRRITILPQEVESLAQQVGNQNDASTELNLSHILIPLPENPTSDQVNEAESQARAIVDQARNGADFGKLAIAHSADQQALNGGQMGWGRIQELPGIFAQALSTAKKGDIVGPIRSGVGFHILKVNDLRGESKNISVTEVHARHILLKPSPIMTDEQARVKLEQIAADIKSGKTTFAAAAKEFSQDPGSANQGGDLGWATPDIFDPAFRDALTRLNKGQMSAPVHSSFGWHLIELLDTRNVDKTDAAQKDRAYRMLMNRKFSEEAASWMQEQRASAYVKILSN
In words: UV/vis spectral shift; intact protein LC-MS. The class given is binding. The note with it: covalent; 100 uM protein, 300 uM PQQ, 4 °C overnight.

The target of the next experiment is T8, FklB (Escherichia coli, UniProt P0A9L3).
T8 construct: recombinant from E. coli BL21, purified without PQQ
T8 sequence (P0A9L3 2-206): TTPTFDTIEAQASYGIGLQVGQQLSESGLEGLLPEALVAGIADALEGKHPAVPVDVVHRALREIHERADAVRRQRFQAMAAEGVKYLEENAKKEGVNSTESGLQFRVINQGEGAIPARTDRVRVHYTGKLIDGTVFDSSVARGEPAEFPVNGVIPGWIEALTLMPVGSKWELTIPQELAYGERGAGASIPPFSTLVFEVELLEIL
In words: UV/vis spectral shift; competition of PQQ4 labelling. The class given is binding. As to conditions: no covalent adduct by intact protein MS.

The target of the next experiment is T9, RuvB (Escherichia coli, UniProt P0A812).
T9 construct: recombinant from E. coli BL21, purified without PQQ
T9 sequence (P0A812 1-336): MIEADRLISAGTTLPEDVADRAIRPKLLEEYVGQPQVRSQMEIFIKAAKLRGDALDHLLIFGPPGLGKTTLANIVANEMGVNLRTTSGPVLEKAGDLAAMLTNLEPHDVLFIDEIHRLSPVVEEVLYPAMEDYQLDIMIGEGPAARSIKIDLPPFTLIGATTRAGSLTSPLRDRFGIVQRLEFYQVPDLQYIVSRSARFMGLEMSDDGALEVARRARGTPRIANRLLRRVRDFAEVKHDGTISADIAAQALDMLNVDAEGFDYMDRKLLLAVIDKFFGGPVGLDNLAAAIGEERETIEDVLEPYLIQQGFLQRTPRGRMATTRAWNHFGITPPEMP
In words: UV/vis spectral shift; intact protein MS; MS/MS site mapping. The class given is binding. The note with it: covalent; lysine K26 (main) and K46; 100 uM protein, 300 uM PQQ, 4 °C overnight.

In experiment [2] the target is T10, 6PGD / 6GPD (6-phosphogluconate dehydrogenase, decarboxylating) (Escherichia coli, UniProt P00350).
T10 construct: gene gnd; endogenous protein in E. coli K-12 lysate
T10 sequence (P00350 1-468): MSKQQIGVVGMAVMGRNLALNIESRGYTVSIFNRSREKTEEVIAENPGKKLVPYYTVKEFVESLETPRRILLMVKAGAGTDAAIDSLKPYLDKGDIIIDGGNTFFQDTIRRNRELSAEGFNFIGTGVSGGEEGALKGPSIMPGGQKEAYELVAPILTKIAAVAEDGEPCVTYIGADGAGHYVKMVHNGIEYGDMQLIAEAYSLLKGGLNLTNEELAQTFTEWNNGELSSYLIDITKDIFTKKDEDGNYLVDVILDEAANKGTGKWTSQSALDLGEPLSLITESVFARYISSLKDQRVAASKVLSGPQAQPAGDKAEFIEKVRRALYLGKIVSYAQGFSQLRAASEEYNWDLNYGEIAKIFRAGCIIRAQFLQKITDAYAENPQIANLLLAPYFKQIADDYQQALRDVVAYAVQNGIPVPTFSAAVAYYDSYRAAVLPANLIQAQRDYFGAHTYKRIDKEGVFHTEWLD
Description: MS/MS closed search of +310 Da on lysine. The class given is biochemical. As to conditions: covalent; E. coli K-12 lysate 3.5 mg/mL, 2000 uM PQQ, 2000 uM CaCl2, 37 °C, 4 h.

Consider 3 compounds from article PMC13088180, “Chemical Proteomics Reveal the Inventory of Pyrroloquinoline Quinone Binding Proteins in Bacteria” (Journal of the American Chemical Society, 2026).

Structures are written as SMILES.

In the case of `OC[C@H]1OC(O)[C@H](O)[C@@H](O)[C@@H]1O` (stereo partly shown) [glucose], on YliI, the coupled colorimetric assay result is “Glucose dehydrogenase activity of YliI reconstituted with PQQ or PQQ probes was measured”.
Consider `CCO` [ethanol], for which, on PedH, the coupled colorimetric assay entry is recorded as “Ethanol dehydrogenase activity of PedH reconstituted with PQQ or PQQ probes was measured”.
As to `O=C(O)c1cc(C(=O)O)c2c(n1)C(=O)C(=O)c1cc(C(=O)O)[nH]c1-2` [PQQ, Pyrroloquinoline quinone], the “+310 Da mass shift” value is “covalent PQQ binding in the case of Tig, HtpG, MBP, RuvB, SurA, and PpiD” at HtpG; “covalent PQQ binding in the case of Tig, HtpG, MBP, RuvB, SurA, and PpiD” at PpiD; “covalent PQQ binding in the case of Tig, HtpG, MBP, RuvB, SurA, and PpiD” in [1]; “covalent PQQ binding in the case of Tig, HtpG, MBP, RuvB, SurA, and PpiD” at Tig (trigger factor); “covalent PQQ binding in the case of Tig, HtpG, MBP, RuvB, SurA, and PpiD” at SurA; “confirming K26 as the predominant covalent binding site” at RuvB. Also, the “UV/vis spectral shift; competition of PQQ4 labelling” value on FklB is “addition of the cofactor revealed characteristic spectroscopic shifts comparable to those of YliI and PedH”. For the same compound, in experiment [2], the mass shift result was “confirmed Tig and 6GPD as covalent binding protein hits”.
